Each structure is given as a SMILES string. Like-named read-outs stand apart in the source and are kept apart here.

The text below walks through data of patent US10206394B2, “Herbicidal compounds” (Syngenta Participations AG, priority 2014, dated 2019).

Common to all, as to assay: Glasshouse assay for herbicidal activity (pre- and post-emergence), percentage phytotoxicity
What all share (assay type): in vivo

Assay [1] concerns Alopecurus myosuroides (ALOMY). Particulars: Alopecurus myosuroides. A digest of the protocol:
(§1)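 Herbicide was applied to potted plants sown in standard soil, one day after sowing for PRE and after about 12 days for POST. Visual percentage damage ratings followed at 15 DAA (POST) and 20 DAA (PRE).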

Assay [2] deals with Echinochloa crus-galli (ECHCG). To be noted: Echinochloa crus-galli. The essentials:
as §1

A further assay relates to Avena fatua (AVEFA). To be noted: Avena fatua. The essentials:
as §1

A further assay has as its system Lolium perenne (LOLPE). Particulars: Lolium perenne. The essentials:
as §1

[3] abbreviates: post-emergence, 360 h, 250 g/ha, post-emergence, 15 DAA, visual assessment (100%=total damage, 0%=no damage), read-out: Post-emergence herbicidal activity (percentage phytotoxicity) ALOMY POST.
The mark [4] stands for this setting: pre-emergence, 480 h, 250 g/ha, pre-emergence, 20 DAA, visual assessment (100%=total damage, 0%=no damage), read-out: Pre-emergence herbicidal activity (percentage phytotoxicity) ALOMY PRE.
[5] abbreviates: post-emergence, 360 h, 250 g/ha, post-emergence, 15 DAA, visual assessment (100%=total damage, 0%=no damage), read-out: Post-emergence herbicidal activity (percentage phytotoxicity) ECHCG POST.
Where [6] appears, read: pre-emergence, 480 h, 250 g/ha, pre-emergence, 20 DAA, visual assessment (100%=total damage, 0%=no damage), read-out: Pre-emergence herbicidal activity (percentage phytotoxicity) ECHCG PRE.
Setting [7] is: post-emergence, 360 h, 250 g/ha, post-emergence, 15 DAA, visual assessment (100%=total damage, 0%=no damage), read-out: Post-emergence herbicidal activity (percentage phytotoxicity) AVEFA POST.
The mark [8] stands for this setting: pre-emergence, 480 h, 250 g/ha, pre-emergence, 20 DAA, visual assessment (100%=total damage, 0%=no damage), read-out: Pre-emergence herbicidal activity (percentage phytotoxicity) AVEFA PRE.
Where [9] appears, read: post-emergence, 360 h, 250 g/ha, post-emergence, 15 DAA, visual assessment (100%=total damage, 0%=no damage), read-out: Post-emergence herbicidal activity (percentage phytotoxicity) LOLPE POST.
Where [10] appears, read: pre-emergence, 480 h, 250 g/ha, pre-emergence, 20 DAA, visual assessment (100%=total damage, 0%=no damage), read-out: Pre-emergence herbicidal activity (percentage phytotoxicity) LOLPE PRE.
Where [11] appears, read: post-emergence, 360 h, POST-emergence, rate 250 g/ha, visual score 15 DAA (100%=total damage, 0%=no damage), read-out: Post-emergence herbicidal activity (percentage phytotoxicity) ALOMY POST.
[12] abbreviates: pre-emergence, 480 h, PRE-emergence, rate 250 g/ha, visual score 20 DAA (100%=total damage, 0%=no damage), read-out: Pre-emergence herbicidal activity (percentage phytotoxicity) ALOMY PRE.
[13] abbreviates: post-emergence, 360 h, POST-emergence, rate 250 g/ha, visual score 15 DAA (100%=total damage, 0%=no damage), read-out: Post-emergence herbicidal activity (percentage phytotoxicity) ECHCG POST.
Where [14] appears, read: pre-emergence, 480 h, PRE-emergence, rate 250 g/ha, visual score 20 DAA (100%=total damage, 0%=no damage), read-out: Pre-emergence herbicidal activity (percentage phytotoxicity) ECHCG PRE.
Where [15] appears, read: post-emergence, 360 h, POST-emergence, rate 250 g/ha, visual score 15 DAA (100%=total damage, 0%=no damage), read-out: Post-emergence herbicidal activity (percentage phytotoxicity) AVEFA POST.
Setting [16] is: pre-emergence, 480 h, PRE-emergence, rate 250 g/ha, visual score 20 DAA (100%=total damage, 0%=no damage), read-out: Pre-emergence herbicidal activity (percentage phytotoxicity) AVEFA PRE.
Setting [17] is: post-emergence, 360 h, POST-emergence, rate 250 g/ha, visual score 15 DAA (100%=total damage, 0%=no damage), read-out: Post-emergence herbicidal activity (percentage phytotoxicity) LOLPE POST.
Setting [18] is: pre-emergence, 480 h, PRE-emergence, rate 250 g/ha, visual score 20 DAA (100%=total damage, 0%=no damage), read-out: Pre-emergence herbicidal activity (percentage phytotoxicity) LOLPE PRE.

For the molecule `COc1cccc(CNC(=O)CC2CC(=O)C(c3c(C)cc(C)cc3C)C2=O)c1` (stereo not drawn) [Compound B11], the pest or weed control at 250 g/ha amounted to 70% in assay [1] (setting [3]); 70% in assay [1] (setting [4]); 70% in assay [2] (setting [5]); 90% in assay [2] (setting [6]); 70% with Avena fatua (AVEFA) (setting [7]); 70% with Avena fatua (AVEFA) (setting [8]). Besides, the pest or weed control at 250 g/ha with Lolium perenne (LOLPE) (setting [9]) was determined as 80%; in the assay with Lolium perenne (LOLPE) (setting [10]), 90%.
With `C/C=C/CNC(=O)CC1CC(=O)C(c2c(C)cc(Br)cc2C)C1=O` (stereo not drawn) [Compound B177], the pest or weed control at 250 g/ha in assay [1] (setting [11]) was determined as 80%; in assay [1] (setting [12]) it was 90%; in assay [2] (setting [13]), 90%; in assay [2] (setting [14]), 90%; in the assay with Avena fatua (AVEFA) (setting [15]) it was 80%; in the assay with Avena fatua (AVEFA) (setting [16]), 30%. Further, the pest or weed control at 250 g/ha came to 80% with Lolium perenne (LOLPE) (setting [17]) and 90% in the assay on Lolium perenne (LOLPE) (setting [18]).
With `CCc1cc(OCC(F)(F)F)cc(C)c1C1C(=O)CC(CC(=O)N2CCOCC2)C1=O` (stereo not drawn) [Compound B164], the pest or weed control at 250 g/ha in assay [1] (setting [3]) came out at 100%; in assay [1] (setting [4]) it was 100%; in assay [2] (setting [5]), 100%; in assay [2] (setting [6]) it was 100%; in the assay with Avena fatua (AVEFA) (setting [7]), 90%; in the assay on Avena fatua (AVEFA) (setting [8]), 100%. The pest or weed control at 250 g/ha in the assay on Lolium perenne (LOLPE) (setting [9]) and with Lolium perenne (LOLPE) (setting [10]) was 100% each time.
Consider `C=C(F)CNC(=O)CC1CC(=O)C(c2c(C)cc(-c3ncc(F)cn3)cc2C)C1=O` (stereo not drawn) [Compound B294], for which the pest or weed control at 250 g/ha stood at 100% in assay [1] (setting [11]); 90% in assay [1] (setting [12]); 100% in assay [2] (setting [13]); 100% in assay [2] (setting [14]); 100% with Avena fatua (AVEFA) (setting [15]); 100% in the assay on Avena fatua (AVEFA) (setting [16]). Also, the pest or weed control at 250 g/ha in the assay on Lolium perenne (LOLPE) (setting [17]) and with Lolium perenne (LOLPE) (setting [18]) was 100% throughout.
`C=CC(C)NC(=O)CC1CC(=O)C(c2c(C)cc(-c3ncc(F)cc3F)cc2C)C1=O` (stereo not drawn) [Compound B330]: the pest or weed control at 250 g/ha (in assay [1] (setting [11]); in assay [1] (setting [12]); in assay [2] (setting [13]); in assay [2] (setting [14]); in the assay with Avena fatua (AVEFA) (setting [15]); in the assay on Avena fatua (AVEFA) (setting [16])) was 100% throughout. The pest or weed control at 250 g/ha in the assay with Lolium perenne (LOLPE) (setting [17]) and in the assay on Lolium perenne (LOLPE) (setting [18]) was 100% throughout.
As to `Cc1cc(C)c(C2C(=O)CC(CC(=O)N3CCC(C)CC3)C2=O)c(C)c1` (stereo not drawn) [Compound A172], the pest or weed control at 250 g/ha in assay [1] (post-emergence, 360 h, post-emergence, 250 g/ha, 15 DAA, visual score (100%=total damage; 0%=no damage), read-out: ALOMY POST herbicidal activity (percentage phytotoxicity)) came out at 80%; in assay [1] (pre-emergence, 480 h, pre-emergence, 250 g/ha, 20 DAA, visual score (100%=total damage; 0%=no damage), read-out: ALOMY PRE herbicidal activity (percentage phytotoxicity)) it was 80%; in assay [2] (post-emergence, 360 h, post-emergence, 250 g/ha, 15 DAA, visual score (100%=total damage; 0%=no damage), read-out: ECHCG POST herbicidal activity (percentage phytotoxicity)), 70%; in assay [2] (pre-emergence, 480 h, pre-emergence, 250 g/ha, 20 DAA, visual score (100%=total damage; 0%=no damage), read-out: ECHCG PRE herbicidal activity (percentage phytotoxicity)), 80%; in the assay with Avena fatua (AVEFA) (post-emergence, 360 h, post-emergence, 250 g/ha, 15 DAA, visual score (100%=total damage; 0%=no damage), read-out: AVEFA POST herbicidal activity (percentage phytotoxicity)) it was 70%; in the assay with Avena fatua (AVEFA) (pre-emergence, 480 h, pre-emergence, 250 g/ha, 20 DAA, visual score (100%=total damage; 0%=no damage), read-out: AVEFA PRE herbicidal activity (percentage phytotoxicity)), 40%. Also, the pest or weed control at 250 g/ha in the assay on Lolium perenne (LOLPE) (post-emergence, 360 h, post-emergence, 250 g/ha, 15 DAA, visual score (100%=total damage; 0%=no damage), read-out: LOLPE POST herbicidal activity (percentage phytotoxicity)) was found to be 60%; with Lolium perenne (LOLPE) (pre-emergence, 480 h, pre-emergence, 250 g/ha, 20 DAA, visual score (100%=total damage; 0%=no damage), read-out: LOLPE PRE herbicidal activity (percentage phytotoxicity)), 90%.
Turning to `COCCOCCCNC(=O)CC1CC(=O)C(c2c(C)cc(C)cc2C)C1=O` (stereo not drawn) [Compound B7], the pest or weed control at 250 g/ha is 100% in assay [1] (setting [3]); 100% in assay [1] (setting [4]); 100% in assay [2] (setting [5]); 80% in assay [2] (setting [6]); 100% with Avena fatua (AVEFA) (setting [7]); 90% with Avena fatua (AVEFA) (setting [8]). For the same molecule, the pest or weed control at 250 g/ha came to 80% in the assay with Lolium perenne (LOLPE) (setting [9]) and 90% with Lolium perenne (LOLPE) (setting [10]).
With `COc1ccc(CNC(=O)CC2CC(=O)C(c3c(C)cc(-c4ccc(C#N)cn4)cc3C)C2=O)cc1` (stereo not drawn) [Compound B324], the pest or weed control at 250 g/ha in assay [1] (setting [11]) came to 70%; in assay [1] (setting [12]) it was 30%; in assay [2] (setting [13]), 100%; in assay [2] (setting [14]), 30%; in the assay with Avena fatua (AVEFA) (setting [15]) it was 90%; in the assay on Avena fatua (AVEFA) (setting [16]) it was 0%. In addition, the figures for the pest or weed control at 250 g/ha in the assay on Lolium perenne (LOLPE) (setting [17]) and in the assay on Lolium perenne (LOLPE) (setting [18]) were 80% and 60%, respectively.
On to `Cc1cc(-c2ncc(F)cc2F)cc(C)c1C1C(=O)CC(CC(=O)NCc2ccc(F)cc2)C1=O` (stereo not drawn) [Compound B72], for which the pest or weed control at 250 g/ha turned out to be 100% in assay [1] (setting [3]); 100% in assay [1] (setting [4]); 100% in assay [2] (setting [5]); 100% in assay [2] (setting [6]); 100% in the assay on Avena fatua (AVEFA) (setting [7]); 70% with Avena fatua (AVEFA) (setting [8]). In addition, the pest or weed control at 250 g/ha in the assay with Lolium perenne (LOLPE) (setting [9]) and with Lolium perenne (LOLPE) (setting [10]) was 100% in each case.
In the case of `Cc1cc(-c2ncc(F)cn2)cc(C)c1C1C(=O)CC(CC(=O)NC2CC2(F)F)C1=O` (stereo not drawn) [Compound B292], the pest or weed control at 250 g/ha in assay [1] (setting [11]) came to 100%; in assay [1] (setting [12]) it was 100%; in assay [2] (setting [13]), 100%; in assay [2] (setting [14]) it was 100%; in the assay on Avena fatua (AVEFA) (setting [15]), 100%; in the assay on Avena fatua (AVEFA) (setting [16]) it was 90%. Also, the pest or weed control at 250 g/ha was found to be 90% in the assay on Lolium perenne (LOLPE) (setting [17]) and 70% with Lolium perenne (LOLPE) (setting [18]).
On to `Cc1cc(-c2ncc(Cl)cc2F)cc(C)c1C1C(=O)CC(CC(=O)NC(C)C)C1=O` (stereo not drawn) [Compound B118], for which the pest or weed control at 250 g/ha in assay [1] (setting [3]) amounted to 100%; in assay [1] (setting [4]), 100%; in assay [2] (setting [5]), 100%; in assay [2] (setting [6]) it was 100%; in the assay on Avena fatua (AVEFA) (setting [7]), 100%; with Avena fatua (AVEFA) (setting [8]), 90%. Also, the pest or weed control at 250 g/ha in the assay with Lolium perenne (LOLPE) (setting [9]) and in the assay on Lolium perenne (LOLPE) (setting [10]) was 100% each time.
With `Cc1cc(C)c(C2C(=O)CC(CC(=O)NC(C)(C)C3CC3)C2=O)c(C)c1` (stereo not drawn) [Compound B65], the pest or weed control at 250 g/ha in assay [1] (setting [3]) was found to be 70%; in assay [1] (setting [4]), 80%; in assay [2] (setting [5]), 70%; in assay [2] (setting [6]) it was 90%; in the assay on Avena fatua (AVEFA) (setting [7]) it was 50%; in the assay with Avena fatua (AVEFA) (setting [8]), 60%. Besides, the pest or weed control at 250 g/ha in the assay on Lolium perenne (LOLPE) (setting [9]) came to 70%; with Lolium perenne (LOLPE) (setting [10]), 80%.
